The text below walks through data of EP1675557B1, “COMPOSITION COMPRISING A SESQUITERPENE LACTONE” (Greenpharma, priority 2003, dated 2005).

In one series the test system is cellules de type Jurkat. The series is described as follows: Apoptosis test on Jurkat cells, apoptosis induced by sodium arsenate, quantified by flow cytometry (propidium iodide). It is filed as cell-based, humaine. Conditions: apoptosis induced by 5 µM arséniate de sodium. As to the method:
Les tests apoptotiques ont été réalisés sur des cellules de type Jurkat. La lignée cellulaire Jurkat (Clone E6-1, ATCC TIB 152), dérivée de cellule T humaine de leucémie aiguë, a été décrite dans la littérature (Weiss A. et al, Journal of Immunology, 1984, 133, 123). Les cellules ont été incubées dans un milieu de culture en présence 1 µL d'arséniate de sodium. La concentration finale en arséniate de sodium dans le milieu de culture est de 5 µM. Afin de tester l'inhibition de l'apoptose induite par l'arséniate de sodium, les cellules ont été cultivées soit en absence (témoin) soit en présence de vulgarine 2,6 µM ou d'un de ses dérivés.
L'apoptose a été quantifiée par cytometrie en flux. Les cellules sont rendues perméables et leurs noyaux sont teintés avec de l'iodure de propidium en présence de ribonucléase. Un minimum de 3000 cellules ont été analysées afin de quantifier l'apoptose cellulaire (Hotz M.A. et al, Cytometry, 1994, 15, 237).

Series [1] has as its system PBMCs (lymphocytes et monocytes) ou du sang total. The series can be described thus: Cell viability test (XTT, mitochondrial dehydrogenase). Conditions: relative to control of activated cells. In general terms: Tetrazolium assays rely on reduction of a dye to a coloured formazan, in cell work by metabolically active cells.
Method: (§1) Les tests ont été réalisés sur des PBMCs (lymphocytes et monocytes) ou du sang total de donneurs sains humains. Tous les prélèvements ont été réalisés au Service d'Hépato-Gastroentérologie et d'Assistance Nutritive des Hôpitaux Universitaires de Strasbourg (Hôpital de Hautepierre), après approbation du protocole d'étude concernant les effets du célastrol par le CCPPRB n°1 d'Alsace.
(§2) Chez des volontaires sains, 20 ml de sang veineux périphérique sont prélevés le matin à jeun sur héparine. Le sang est ensuite dilué au demi dans de la solution saline équilibrée de Hank's dépourvue en Ca^2+ et en Mg^2+ (HBSS-CMF, Gibco BRL, Cergy, France) additionnée de 100 UI/ml de streptomycine (Biochrom KG, Berlin, Allemagne) et de 100 UI/ml de pénicilline (Biochrom KG). Les PBMCs (lymphocytes et monocytes) sont alors séparées par centrifugation sur Ficoll-Histopaque de densité 1,076 (Sigma, L'Isle d'Abeau-Chesnes, France) (30 min à 400 g) puis, après deux lavages dans du HBSS-CMF additionné d'antibiotiques (10 min à 250 g), resuspendues dans du milieu RPMI 1640 (Gibco BRL) additionné de 10 % (volume/volume) de sérum foetal de veau (SFV) inactivé à la chaleur (56°C, 30 min, Gibco BRL) et d'antibiotiques. Après comptage à la cellule de Malassez, les cellules sont incubées à raison de 2 x 10^5 cellules/puits de 1 ml dans des plaques de 24 puits (Corning Inc., New York, USA) à 37°C dans un incubateur humidifié (air 95 % - CO2 5 %), en présence ou en absence des molécules étudiées préparées dans du DMSO (diméthyl sulfoxyde, Sigma ; maximum : 1 % (v/v) par puit), avec ou sans activation par du lipopolysaccharide de Salmonella abortus equi (LPS, 5 µg/ml) (Sigma) et de la phytohémagglutinine (PHA, 1 µg/ml) (Sigma) ajoutés à T0. Après 24 heures d'incubation, les plaques sont centrifugées (15 min à 200 g), et les surnageants prélevés puis congelés à -80°C jusqu'au dosage.
(§3) La technique est basée sur le clivage par la déshydrogénase mitochondriale d'un sel de tétrazolium de couleur jaune en formazan de couleur orange. Les culots cellulaires (PBMCs et sang total) contenus dans les plaques de culture sont resuspendus dans du RPMI 1640 additionné d'hydroxide 2,3-bis-(2-méthoxy-4-nitro-5-sulfophényl)-5-[(phénylamino)carbonyl]-2H-tétrazolium (XTT, 1 mg/ml, Sigma), et de méthosulfate de phénazine (1,25 mM, Sigma), catalyseur de la réaction. Les plaques sont incubées 4 à 24 heures, puis lues en absorbance à 450 nm (filtre de référence : 620 nm). La viabilité cellulaire est estimée par rapport au témoin de cellules activées.
The nature of a further series: in vitro. Conditions: human, pbmcs or whole blood.

Method for in vitro: as §1, §2, §3

Consider 4-épivulgarine, for which the “pourcentage d'inhibition de l'apoptose” value in the series on cellules de type Jurkat (2,6 µM) is given as around 100%. Besides, the “Pourcentage de viabilité cellulaire” value in series [1] (Concentration 0,01 µM, 0.01 µM) was 105%; in series [1] (Concentration 0,1 µM, 0.1 µM), 103%; in series [1] (Concentration 1 µM), 99%; in series [1] (Concentration 10 µM), 103%; in series [1] (Concentration 30 µM), 100%.
By viability is commonly meant a read-out of living cells in per cent, often relative to untreated cells. Turning to `CC1C(=O)OC2C1CCC1(C)C(=O)CCC(C)(O)C21` (centres unmarked) [2,3-dihydrovulgarine], in the series “in vitro”, the viability at 0.01 µM stood at 110%, the viability at 0.1 µM was determined as 104%, the viability at 1 µM was 105% and the viability at 10 µM amounted to 108%. The viability at 30 µM in “in vitro” came out at 105%.
Broadly, the inhibition is how much of the control response was suppressed. Turning to `CC1C(=O)OC2C1CCC1(C)C(=O)C=CC(C)(O)C21` (centres unmarked) [Vulgarine, vulgarine], the inhibition at 2.6 µM with cellules de type Jurkat (Homo sapiens, 2,6 µM, read-out: pourcentage d'inhibition de l'apoptose) is around 100%. Moreover, in “in vitro”, the viability at 0.01 µM came to 112%, the viability at 0.1 µM is 102%, the viability at 1 µM is 119% and the viability at 10 µM amounted to 104%. The viability at 30 µM in the series “in vitro” amounted to 102%.
